The record followed here is ChEMBL document CHEMBL1129868 (Bioorg Med Chem Lett, 1997).

Structures are written as SMILES.

Assay [1] concerns the target Beta-1 adrenergic receptor (Cavia porcellus, UniProt B0FL73). Nature of the assay: Tested for beta-1-adrenergic blocking effect by measuring the ability to inhibit the positive inotropic effect of isoproterenol on the isolated right atrium of guinea pigs. It is filed as functional, tissue-based, Cardiac atrium.
The next assay addresses Adrenergic receptor beta (Rattus norvegicus, UniProt P18090+P10608+P26255). Nature of the assay: The compound was tested for its ability to inhibit (-)-[3H]dihydroalprenolol binding to beta-adrenergic receptor sites in rat cortex.
Assay [2] in a line: Ratio of beta-1-adrenergic blocking effect to that of beta 2 -adrenergic blocking effect. It is filed as functional.

Sequence of Beta-1 adrenergic receptor (B0FL73 whole entry): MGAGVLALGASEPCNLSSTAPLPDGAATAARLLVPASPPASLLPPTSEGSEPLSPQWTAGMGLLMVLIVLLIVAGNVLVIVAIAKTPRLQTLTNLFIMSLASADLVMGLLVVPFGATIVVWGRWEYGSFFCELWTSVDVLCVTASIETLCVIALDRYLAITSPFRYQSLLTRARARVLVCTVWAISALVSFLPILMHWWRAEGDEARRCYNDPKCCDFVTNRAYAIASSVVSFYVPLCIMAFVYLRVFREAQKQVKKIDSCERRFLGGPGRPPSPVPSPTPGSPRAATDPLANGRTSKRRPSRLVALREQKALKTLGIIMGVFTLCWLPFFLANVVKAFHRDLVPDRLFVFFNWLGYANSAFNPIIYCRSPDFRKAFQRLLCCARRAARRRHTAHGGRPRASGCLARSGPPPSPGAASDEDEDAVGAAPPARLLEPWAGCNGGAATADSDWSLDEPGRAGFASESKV

With `COCCc1ccc(OC(F)(F)[C@@H](O)CNC(C)C)cc1`, the half-inhibitory concentration (IC50) in assay [1] amounted to 1.35 µM; on Adrenergic receptor beta it was 1.54 µM. For the same compound, the Ratio in assay [2] worked out at 0.63.
In the case of `COCCc1ccc(OC(F)(F)[C@H](O)CNC(C)C)cc1`, the IC50 on Adrenergic receptor beta is > 100 µM.

The IC50 is the concentration needed to halve the response being measured. The low end stands for greater potency in that assay, the high end for weaker potency in that assay.
